According to ChEMBL document CHEMBL4359836, “Synthesis and Biological Assessment of Pyrrolobenzoxazine Scaffold as a Potent Antioxidant” (J Med Chem, 2019):
Activity calls are given as the source filed them. The calls are words filed in the database; no cut-off is given here.

Tests used:
Mitochondria [1] = assay: Antioxidant activity in goat cardiac mitochondria assessed as reversal of CuCl2/ascorbic acid-induced reduction in GSH level at 8.25 uM after 1 hr by DTNB reagent based method (reference value: 75.89%); assay type: functional, subcellular; parameters: scale not given: the % may be the effect or the level left; settings: Capra hircus, Heart, Mitochrondria
Mitochondria [2] = assay: (§1) Protective activity against CuCl2/ascorbic acid-induced apoptotic alteration in goat cardiac mitochondria assessed as reversal of CuCl2/ascorbic acid-induced reduction in cytochrome c oxidase activity at 66 uM measured at 10 secs time interval for 90 secs by spectrophotometric analysis relative to control; assay type: functional, subcellular; settings: Capra hircus, Heart, Mitochrondria
Mitochondria [3] = assay: Antioxidant activity in goat cardiac mitochondria assessed as reversal of CuCl2/ascorbic acid-induced reduction in ICDH level at 33 uM using isocitrate as substrate after 1 hr relative to control; assay type: functional, subcellular; settings: Capra hircus, Heart, Mitochrondria
Mitochondria [4] = assay: Antioxidant activity in goat cardiac mitochondria assessed as reversal of CuCl2/ascorbic acid-induced reduction in alpha-KGDH level at 66 uM using alpha-ketoglutarate as substrate after 1 hr relative to control; assay type: functional, subcellular; settings: Capra hircus, Heart, Mitochrondria
Mitochondria [5] = assay: as §1, with “33” for “66”, “uM incubated for 1 hr and” for “uM”; assay type: functional, subcellular; settings: Capra hircus, Heart, Mitochrondria
[6] = Antioxidant activity in pH 7.4 potassium phosphate buffer assessed as CuCl2/ascorbic acid induced hydroxyl radical scavenging activity by measuring deoxyribose degradation product formation after 20 mins by thiobarbituric acid based absorbance analysis; assay type: functional
Capra hircus [7] = species on record: Capra hircus; assay: Effect on ICDH in goat cardiac mitochondria assessed as reversal of CuCl2/ascorbic acid induced reduction in Vmax at 66 uM using isocitrate as substrate after 1 hr by Lineweaver-Burk double reciprocal plot analysis; settings: Heart
Mitochondria [8] = assay: Protection against CuCl2/ascorbic acid-induced depolarization of goat cardiac mitochondria at 66 uM after 60 mins by calcein AM dye-based flow cytometric analysis; assay type: functional, subcellular; settings: Capra hircus, Heart, Mitochrondria
Mitochondria [9] = assay: Antioxidant activity in goat cardiac mitochondria assessed as reversal of CuCl2/ascorbic acid-induced reduction in alpha-KGDH level at 33 uM using alpha-ketoglutarate as substrate after 1 hr relative to control; assay type: functional, subcellular; settings: Capra hircus, Heart, Mitochrondria
Mitochondria [10] = assay: as §1, with “oxidoreductase” for “oxidase”, “8.25” for “66”, “uM incubated for 1 hr and” for “uM”, “(reference value: 47.82%)” for “relative to control”; assay type: functional, subcellular; parameters: scale not given: the % may be the effect or the level left; settings: Capra hircus, Heart, Mitochrondria
[11] = Antioxidant activity in pH 7.4 potassium phosphate buffer assessed as CuCl2/ascorbic acid induced hydroxyl radical scavenging activity by measuring trolox equivalent antioxidant capacity by measuring IC50 Trolox/IC50 test compound ratio in presence of deoxyribose by thiobarbituric acid based absorbance analysis; assay type: functional
[12] = Inhibition of ICDH in goat cardiac mitochondria assessed as effect on Vmax at 66 uM using isocitrate as substrate after 1 hr by Lineweaver-Burk double reciprocal plot analysis; parameters: species or system Capra hircus, Heart
[13] = Antioxidant activity in pH 7.4 phosphate buffer assessed as DPPH radical scavenging activity at 64 uM after 30 mins by spectrophotometric analysis (reference value: 0.811 +/- 0.02%); assay type: functional
Capra hircus [14] = species on record: Capra hircus; assay: Effect on alpha-ketoglutarate dehydrogenase in goat cardiac mitochondria assessed as reversal of CuCl2/ascorbic acid induced reduction in Vmax at 66 uM using alpha-ketoglutarate as substrate by Lineweaver-Burk double reciprocal plot analysis; settings: Heart
Mitochondria [15] = assay: Antioxidant activity in goat cardiac mitochondria assessed as reversal of CuCl2/ascorbic acid-induced reduction in ICDH level at 16.5 uM using isocitrate as substrate after 1 hr (reference value: 65.58%); assay type: functional, subcellular; parameters: scale not given: the % may be the effect or the level left; settings: Capra hircus, Heart, Mitochrondria
Mitochondria [16] = assay: Antioxidant activity in goat cardiac mitochondria assessed as inhibition of CuCl2/ascorbic acid-induced manganese superoxide dismutase at 66 uM after 1 hr by pyrogallol autoxidation method relative to control; assay type: functional, subcellular; settings: Capra hircus, Heart, Mitochrondria
[17] = Pro-oxidant activity in pH 7.4 potassium phosphate buffer assessed as reduction in CuCl2/ascorbic acid induced hydroxyl radical scavenging activity at > 66 uM in presence of deoxyribose by measuring deoxyribose degradation product formation after 20 mins by thiobarbituric acid based absorbance analysis
Mitochondria [18] = assay: Antioxidant activity in goat cardiac mitochondria assessed as inhibition of CuCl2/ascorbic acid-induced lipid peroxidation at 66 uM after 1 hr by thiobarbituric acid based UV-Visible spectrophotometric method (reference value: 60.11%); assay type: functional, subcellular; settings: Capra hircus, Heart, Mitochrondria
[19] = Inhibition of PDH in goat cardiac mitochondria assessed as effect on Vmax at 66 uM using sodium pyruvate as substrate after 1 hr by Lineweaver-Burk double reciprocal plot analysis; parameters: species or system Capra hircus, Heart
Mitochondria [20] = assay: Antioxidant activity in goat cardiac mitochondria assessed as reversal of CuCl2/ascorbic acid-induced reduction in SDH level at 16.5 uM using succinate as substrate after 1 hr by spectrophotometric analysis relative to control; assay type: functional, subcellular; settings: Capra hircus, Heart, Mitochrondria
[21] = Effect on GSH level in goat cardiac mitochondria at 8.25 to 66 uM after 1 hr by DTNB reagent based method; assay type: ADME, subcellular, Capra hircus, Heart, Mitochrondria
Mitochondria [22] = assay: Antioxidant activity in goat cardiac mitochondria assessed as reversal of CuCl2/ascorbic acid-induced reduction in SDH level at 66 uM using succinate as substrate after 1 hr by spectrophotometric analysis relative to control; assay type: functional, subcellular; settings: Capra hircus, Heart, Mitochrondria
[23] = Binding affinity to Cu2+ assessed as decrease in heat change at 66 uM in presence of CuCl2 by isothermal titration calorimetry
Capra hircus [24] = species on record: Capra hircus; assay: Effect on PDH in goat cardiac mitochondria assessed as reversal of CuCl2/ascorbic acid induced reduction in Vmax at 66 uM using sodium pyruvate as substrate after 1 hr by Lineweaver-Burk double reciprocal plot analysis; settings: Heart
Mitochondria [25] = assay: Antioxidant activity in goat cardiac mitochondria assessed as reversal of CuCl2/ascorbic acid-induced reduction in SDH level at 33 uM using succinate as substrate after 1 hr by spectrophotometric analysis relative to control; assay type: functional, subcellular; settings: Capra hircus, Heart, Mitochrondria
Mitochondria [26] = assay: Antioxidant activity in goat cardiac mitochondria assessed as reversal of CuCl2/ascorbic acid-induced reduction in alpha-KGDH level at 8.25 uM using alpha-ketoglutarate as substrate after 1 hr (reference value: 69.78%); assay type: functional, subcellular; parameters: scale not given: the % may be the effect or the level left; settings: Capra hircus, Heart, Mitochrondria
Capra hircus [27] = species on record: Capra hircus; assay: Effect on alpha-ketoglutarate dehydrogenase in goat cardiac mitochondria assessed as reversal of CuCl2/ascorbic acid induced reduction in Km at 66 uM using alpha-ketoglutarate as substrate after 1 hr by Lineweaver-Burk double reciprocal plot analysis; settings: Heart
[28] = Binding affinity to ascorbate at 66 uM in presence of ascorbic acid by isothermal titration calorimetry
[29] = Binding affinity to Cu2+ assessed as binding constant K2 at 66 uM in presence of ascorbic acid/CuCl2 by isothermal titration calorimetry
[30] = Induction of structural distortion in goat cardiac mitochondria at 66 uM after 1 hr by scanning electron microscopy; assay type: subcellular, Capra hircus, Heart, Mitochrondria
Mitochondria [31] = assay: Antioxidant activity in goat cardiac mitochondria assessed as inhibition of CuCl2/ascorbic acid-induced lipid peroxidation at 8.25 uM after 1 hr by thiobarbituric acid based UV-Visible spectrophotometric method (reference value: 60.11%); assay type: functional, subcellular; settings: Capra hircus, Heart, Mitochrondria
[32] = Toxicity in goat cardiac mitochondria assessed as effect on calcium accumulation at 66 uM after 60 mins by calcein AM dye-based flow cytometric analysis; assay type: subcellular, Capra hircus, Heart, Mitochrondria; settings: 1 h
[33] = Binding affinity to Cu2+ assessed as binding constant K1 at 66 uM in presence of CuCl2 by isothermal titration calorimetry
Mitochondria [34] = assay: Antioxidant activity in goat cardiac mitochondria assessed as reversal of CuCl2/ascorbic acid-induced reduction in PDH level at 33 uM using sodium pyruvate as substrate after 1 hr by spectrophotometric analysis relative to control; assay type: functional, subcellular; settings: Capra hircus, Heart, Mitochrondria

fold change (FC) (Mitochondria [2]): 5.12
fold change (FC) (Mitochondria [5]): 3.5
IC50 [6]: 11 µM
Activity (Capra hircus [7]): Active
Activity (Mitochondria [10]): 23.5%
inhibition (INH) [12]: Not Active
Activity (Capra hircus [14]): Active
inhibition (INH) [19]: Not Active
Activity [23]: Active
Activity (Capra hircus [24]): Active
Activity (Capra hircus [27]): Active
K [28]: 4.6 ×10³ /M
K [29]: 5.07 ×10³ /M
K [33]: 8.37 ×10⁴ /M
Compound: CCOC(=O)c1c(-c2ccc(O)c(OC)c2)cn2c1c(=O)oc1ccccc12
Activity (Mitochondria [1]): 79.6%
fold change (FC) (Mitochondria [3]): 2.4
fold change (FC) (Mitochondria [4]): 4.62
Activity [6]: Dose-dependent effect
MEC [6]: 66 µM
Activity (Mitochondria [8]): Active
fold change (FC) (Mitochondria [9]): 2.74
Ratio IC50 [11]: 0.9
Activity [13]: 82.3%
Activity (Mitochondria [15]): 75.5%
inhibition (Mitochondria [16]): 60.9%
Activity [17]: Active
inhibition (Mitochondria [18]): 36.4%
fold change (FC) (Mitochondria [20]): 2.08
Activity [21]: Non-Toxic
fold change (FC) (Mitochondria [22]): 5
fold change (FC) (Mitochondria [25]): 3.06
Activity (Mitochondria [26]): 43.1%
Activity [30]: Non-Toxic
inhibition (Mitochondria [31]): 12.3%
Activity [32]: Non-Toxic
fold change (FC) (Mitochondria [34]): 2.94
